Reference: the NIST ThermoML archive (doi:10.1016/j.jct.2018.07.031)

Experiments:
[1] = refractive index (Na D-line) (dimensionless); xn = mol fraction of the nth substance listed; settings: 100 kPa, Liquid, Standard Abbe refractometry, x1 = 0.333
[2] = xn = mol fraction of the nth substance listed; settings: x1 = 0.333; for surface tension liquid-gas: Drop volume; for viscosity / electrical conductivity / speed of sound / mass density: 100 kPa, Liquid; for viscosity: Capillary tube (Ostwald / Ubbelohde) method; for electrical conductivity: Frequency=0.002 MHz, Alternating current cell with electrodes; for speed of sound: Frequency=3 MHz, Single path-length method; for mass density: Vibrating tube method
[3] = molar heat capacity at constant pressure; xn = mol fraction of the nth substance listed; settings: 100 kPa, Liquid, DSC, x1 = 0.333

C[N+](C)(C)CCO.[Cl-] [choline chloride] + OCC(O)CO
Settings	electrical conductivity, [2] [S/m]	mass density, [2] [kg/m3]	molar heat capacity at constant pressure, [3] [J/K/mol]	refractive index, [1]	speed of sound, [2] [m/s]	surface tension liquid-gas, [2] [mN/m]	viscosity, [2] [mPa·s]
278.15 K	0.026	1207.05	211.5	–	2049.6	68.01	1511
280.65 K	0.032	1205.6	212.5	–	2042.8	67.9	1211
283.15 K	0.0406	1204.2	213.5	1.48809	2036.2	67.77	982.4
285.65 K	0.0491	1202.8	214.5	1.4875	2029.9	67.65	801.5
288.15 K	0.0587	1201.4	215	1.48698	2024	67.5	658.4
290.65 K	0.0703	1200	216	1.48632	2018.2	67.34	543.7
293.15 K	0.0839	1198.55	217	1.48574	2012.6	67.2	452.6
295.65 K	0.0992	1197.15	217.5	1.48514	2006.9	67.1	378.5
298.15 K	0.117	1195.75	218.5	1.48455	2001.3	66.95	319.7
300.65 K	0.136	1194.3	219	1.48396	1995.8	66.81	271.4
303.15 K	0.158	1192.9	220	1.48337	1990.2	66.7	232.1
305.65 K	0.182	1191.5	221	1.48278	1984.7	66.57	199
308.15 K	0.21	1190.15	221.5	1.48218	1979.2	66.43	171.6
310.65 K	0.24	1188.75	222.5	1.48159	1973.8	66.31	149
313.15 K	0.276	1187.4	223.5	1.48098	1968.3	66.18	130
315.65 K	0.314	1186	224	1.4804	1962.8	66.05	113.8
318.15 K	0.352	1184.65	225	1.4798	1957.4	65.93	100
320.65 K	0.394	1183.25	226	1.47921	1951.8	65.74	88.43
323.15 K	0.439	1181.9	227	1.4786	1946.3	65.62	78.39
325.65 K	0.487	1180.5	228	1.47801	1940.7	65.48	69.46
328.15 K	0.544	1179.1	228.5	1.47741	1935.2	65.38	62.06
330.65 K	0.603	1177.7	229	1.47681	1929.6	65.23	55.63
333.15 K	0.662	1176.35	230	1.47622	1924.1	65.1	50.05
335.65 K	0.729	1174.95	231	1.47564	1918.5	64.97	45.19
338.15 K	0.801	1173.55	232	1.47504	1912.9	64.84	40.94
